Broadly, the IC50 is the concentration that gives 50% inhibition.

The target in assay [1] is T1, human renin (Homo sapiens, UniProt P00797).
T1 construct: purchased National Institute for Biological Standards, London
T1 sequence (P00797 67-406): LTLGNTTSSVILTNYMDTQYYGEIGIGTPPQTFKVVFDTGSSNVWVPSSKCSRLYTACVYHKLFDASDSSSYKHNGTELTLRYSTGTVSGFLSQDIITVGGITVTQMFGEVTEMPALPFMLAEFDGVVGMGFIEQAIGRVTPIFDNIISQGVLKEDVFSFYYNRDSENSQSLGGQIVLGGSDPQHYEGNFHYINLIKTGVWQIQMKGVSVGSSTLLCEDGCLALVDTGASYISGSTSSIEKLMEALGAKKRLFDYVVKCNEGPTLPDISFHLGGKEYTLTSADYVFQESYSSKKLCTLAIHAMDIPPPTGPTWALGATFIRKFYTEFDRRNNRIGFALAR
Put plainly: Human Renin Inhibition in vitro (angiotensin I by radioimmunoassay). Type of assay: biochemical. Particulars: pH 7.4, two hours at 37° C. How it is done:
Compounds of Formula I were evaluated as inhibitors of human renin in an in vitro assay, as follows: This human renin inhibition test has been previously described in detail [Papaioannou et al., Clinical and Experimental Hypertension, A7(9), 1243-1257 (1985)]. Human renin was obtained from the National Institute for Biological Standards, London. An incubation mixture was prepared containing the following components: in a total volume of 0.25 mL: 100 mM Tris-acetate buffer at pH 7.4, 25×10-6 Goldblatt units of renin, 0.05 mL of plasma from human volunteers taking oral contraceptives, 6.0 mM Na-EDTA, 2.4 mM phenylmethyl sulfonyl fluoride, 1.5 mM 8-hydroxyquinoline, 0.4 mg/mL bovine serum albumin (BSA), and 0.024 mg/mL neomycin sulfate. This mixture was incubated for two hours at 37° C. in the presence or absence of renin inhibitors. The produced angiotensin I was determined by radioimmunoassay (New England Nuclear kit). Test compounds to be assayed were dissolved in DMSO and diluted with 100 mM Tris-acetate buffer at pH 7.4 containing 0.5% BSA to the appropriate concentration. The final concentration of organic solvent in the reaction mixture was less than 1%. Control incubations at 37° C. were used to correct for effects of organic solvent on renin activity.

The test system of assay [2] is pepsin. Particulars: Umezawa et al, J. Antibiot. 1970; cited from earlier work.
Assay [3] deals with cathepsin D. Particulars: Umezawa et al, J. Antibiot. 1970; cited from earlier work.
For assay [4], the system named is renin. Particulars: Umezawa et al, J. Antibiot. 1970; cited from earlier work.
For assay [5], the system named is blood pressure. The following applies: after the injection of hog renin into nephrectomized rats; Gross et al, Science 1971; cited from earlier work.

Non-standard residues stand in square brackets, D forms with d. Residues, ends and D or L forms follow the SMILES beside them. *: point of attachment. Sta = CC(C)C[C@H](N)[C@@H](O)CC(=O)O; Isovaleryl = CC(C)CC(=O)*

Regarding `C#CC[C@H](O)[C@H](O)[C@H](CC1CCCCC1)NC(=O)[C@H](Cc1cscn1)NC(=O)[C@@H](CC(=O)N(C)CCN(C)C)Cc1ccccc1` [Example 1, N^1-[2-[[1S,1R*-(cyclohexylmethyl-2S*,3R*-dihydroxy-5-hexynyl]amino]-2-oxo-1R*-(4-thiazolylmethyl)ethyl]-N^4-[2-(dimethylamino)ethyl]-N^4-methyl-2S*-(phenylmethyl)butanediamide], it took 28 nM to reach half-maximal inhibition in assay [1] (IC50).
`CC(C)CC(=O)N[C@H](C(=O)N[C@H](C(=O)N[C@@H](CC(C)C)[C@@H](O)CC(=O)N[C@@H](C)C(=O)N[C@@H](CC(C)C)[C@@H](O)CC(=O)O)C(C)C)C(C)C` [pepstatin] (Isovaleryl-VV[Sta]A[Sta]-OH): the “inhibitor of aspartyl proteases: pepsin” value in assay [2] is “inhibitor of aspartyl proteases such as pepsin”. The “inhibitor of aspartyl proteases: cathepsin D” value in assay [3] is reported as “inhibitor of aspartyl proteases such as pepsin, cathepsin D”. For the same compound, the “inhibitor of aspartyl proteases: renin” value in assay [4] is “inhibitor of aspartyl proteases such as pepsin, cathepsin D and renin”. Moreover, in assay [5], the “reduce blood pressure in vivo” value is recorded as “found to reduce blood pressure in vivo”.
